Experimental data: ChEMBL document CHEMBL1149725, “4-acetylaplykurodin B and aplykurodinone B, two ichthyotoxic degraded sterols from the Mediterranean mollusk Aplysia fasciata” (J Nat Prod, 1992)

How the values were obtained:
Assay type in all cases: organism-based
Conditions in all cases: in vivo; call rule not given here
Carassius auratus = assay: Ichthyotoxicity in Carassius auratus at 60 ug/cm'2 by antifeedant assay
Gambusia affinis = assay: Toxicity in Gambusia affinis at 10 ppm
Artemia salina = assay: Toxicity in Artemia salina

Structure (SMILES): CC(=O)O[C@H]1CC[C@@]2(C)[C@H]3[C@H]1CC(=O)O[C@H]3C[C@@H]2[C@H](C)CCC=C(C)C [4-ACETYLAPLYKURODIN B]
- Activity (Carassius auratus): Active
- Activity (Gambusia affinis): Toxic
- LC50 (Artemia salina): 29.1 ppm

Structure (SMILES): CC(C)=CCC[C@@H](C)[C@H]1C[C@@H]2OC(=O)C[C@H]3C(=O)CC[C@@]1(C)[C@H]23 [APLYKURODINONE]
- Activity (Carassius auratus): Active
- Activity (Gambusia affinis): Toxic
